“And” between values parts separate entries of the source, which are not always exact repeats. Equal entries are not always repeated. Where two headings read alike, the source gives them in different places.
How the values were obtained:
[1] = target: T1, α-amylase from Bacillus amyloliquefaciens (Bacillus amyloliquefaciens, UniProt P00692); assay: hydrolysis of raw corn starch, reducing sugar by DNSA; format: biochemical; details: for Relative Activity: raw corn starch, pH 5.3, 37° C., 20 min
Protocol: Thereafter, 40 μl of each pre-incubation solution was added to 15 mg raw corn starch, and the reaction mixture incubated at 37° C. for 20 minutes. The control reaction mixture contained substrate, enzyme, and buffer but no manganese ion. The starch hydrolysis reaction was stopped by combining the reaction mixture with a solution containing DNSA and heating for 30 min at 85° C. The absorbance of the control and test samples was measured at 562 nm to monitor the amount of reducing sugar in each sample.

[2] = target: T2, glucoamylase from Aspergillus Niger (Aspergillus niger, UniProt P69328); details: for Relative Activity: washed 5 times before enzyme, pH 5.3, 37° C., 20 min
Protocol: Thereafter 40 μl of the buffer and metal solution was added to 15 mg raw corn starch and the resulting mixture was pre-incubated at 20° C. for 20 minutes. The starch mixture was washed 5 times with excess buffer, followed by centrifugation, and removal of the supernatant. Then an enzyme solution containing buffer and the glucoamylase from Aspergillus niger was added to the washed starch and the reaction mixture incubated at 37° C. for 20 minutes. The control reaction mixture contained substrate, enzyme, and buffer but no manganese ion. The starch hydrolysis reaction was stopped by combining the reaction mixture with a solution containing DNSA and heating for 30 min at 85° C. The absorbance of the control and test samples was measured at 562 nm to monitor the amount of reducing sugar in each sample.

[3] = test system: glucoamylase from Rhizopus sp.; assay: effect of pre-incubation of Mn^++ with enzyme or starch on raw corn starch conversion; format: biochemical; details: for % conversion of the starch substrate: reaction 37° C., pH 5.3
Protocol: The glucoamylase from Rhizopus sp. Or raw corn starch substrate were pre-incubated in a sodium acetate buffer, pH 5.3, with 1.0 mM Mn^++ for 0, 20, 40, or 60 min at 22° C. The enzyme pre-incubation solutions were then combined with 15 mg raw corn starch to provide a reaction mixture that was incubated at 37° C. for 5 minutes. The starch pre-incubation solutions were combined with an enzyme solution containing the glucoamylase from Rhizopus sp and buffer to provide a reaction mixture that was incubated at 37° C. for 5 minutes or 10 minutes.

β-amylase from barley = β-amylase from barley (Hordeum vulgare, UniProt P16098); assay: hydrolysis of cooked starches from different botanical sources; format: biochemical; details: pH 5.2, 37° C., 10 min
Protocol: The control reaction mixture contained enzyme, buffer, and starch but no manganese ion. The starch hydrolysis reaction was stopped by combining the reaction mixture with 3,5 dinitrosalicylic acid (DNSA) and heating for 30 min at 85° C. The absorbance of the control and test samples was measured at 562 nm to monitor the amount of reducing sugar in each sample.

[4] = target: T2, glucoamylase from Aspergillus Niger; details: pH 5.2, 37° C., 10 min
Protocol: The control reaction mixture contained enzyme, buffer, and starch but no manganese ion. The starch hydrolysis reaction was stopped by combining the reaction mixture with a solution containing DNSA and heating for 30 min at 85° C. The absorbance of the control and test samples was measured at 562 nm to monitor the amount of reducing sugar in each sample.

[5] = target: T1, α-amylase from Bacillus amyloliquefaciens; assay: hydrolysis of cooked dent corn starch; format: biochemical; details: 0.1 mM Mn^++; cooked dent corn starch 0.5%; pH 5.2; 37° C., 10 min
[6] = target: T2, glucoamylase from Aspergillus Niger; details: cooked dent corn starch 0.5%, pH 5.2, 37° C., 10 min
Protocol: The separate reaction mixtures were incubated at 37° C. for 10 minutes. The control reaction mixtures contained enzyme, buffer, and starch but no manganese ion. The starch hydrolysis reaction was stopped by combining the reaction mixture with a solution containing DNSA and heating for 30 min at 85° C. The absorbance of the control and test samples was measured at 562 nm to monitor the amount of reducing sugar in each sample.

[7] = 0.01 mM Mn^++, cooked barley starch 0.5%
[8] = 0.01 mM Mn^++, cooked pea starch 0.5%
[9] = 0.01 mM Mn^++, cooked potato starch 0.5%
[10] = 0.01 mM Mn^++, cooked rice starch 0.5%
[11] = 0.01 mM Mn^++, cooked soluble potato starch 0.5%
[12] = 0.01 mM Mn^++, cooked tapioca starch 0.5%
[13] = 0.01 mM Mn^++, cooked wheat starch 0.5%
[14] = 0.1 mM Mn^++, cooked barley starch 0.5%
[15] = 0.1 mM Mn^++, cooked pea starch 0.5%
[16] = 0.1 mM Mn^++, cooked potato starch 0.5%
[17] = 0.1 mM Mn^++, cooked rice starch 0.5%
[18] = 0.1 mM Mn^++, cooked soluble potato starch 0.5%
[19] = 0.1 mM Mn^++, cooked tapioca starch 0.5%
[20] = 0.1 mM Mn^++, cooked wheat starch 0.5%
[21] = 1 mM Mn^++, cooked barley starch 0.5%
[22] = 1 mM Mn^++, cooked pea starch 0.5%
[23] = 1 mM Mn^++, cooked potato starch 0.5%
[24] = 1 mM Mn^++, cooked rice starch 0.5%
[25] = 1 mM Mn^++, cooked soluble potato starch 0.5%
[26] = 1 mM Mn^++, cooked tapioca starch 0.5%
[27] = 1 mM Mn^++, cooked wheat starch 0.5%
[28] = 10 mM Mn^++, cooked barley starch 0.5%
[29] = 10 mM Mn^++, cooked pea starch 0.5%
[30] = 10 mM Mn^++, cooked potato starch 0.5%
[31] = 10 mM Mn^++, cooked rice starch 0.5%
[32] = 10 mM Mn^++, cooked tapioca starch 0.5%
[33] = 10 mM Mn^++, cooked wheat starch 0.5%

T1 sequence (P00692 32-514): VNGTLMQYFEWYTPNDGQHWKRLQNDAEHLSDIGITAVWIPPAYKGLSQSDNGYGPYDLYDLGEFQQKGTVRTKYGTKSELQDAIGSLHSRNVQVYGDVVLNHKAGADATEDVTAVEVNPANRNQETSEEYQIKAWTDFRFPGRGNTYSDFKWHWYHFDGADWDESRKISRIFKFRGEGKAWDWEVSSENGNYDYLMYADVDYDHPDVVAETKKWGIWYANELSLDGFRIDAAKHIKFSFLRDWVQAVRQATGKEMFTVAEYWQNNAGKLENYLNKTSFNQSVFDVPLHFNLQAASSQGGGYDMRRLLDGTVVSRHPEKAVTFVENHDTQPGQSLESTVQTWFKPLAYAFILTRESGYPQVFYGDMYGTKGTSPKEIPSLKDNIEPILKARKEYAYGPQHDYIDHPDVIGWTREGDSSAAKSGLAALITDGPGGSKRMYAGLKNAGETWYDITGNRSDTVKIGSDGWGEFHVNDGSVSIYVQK
T2 sequence (P69328 25-640): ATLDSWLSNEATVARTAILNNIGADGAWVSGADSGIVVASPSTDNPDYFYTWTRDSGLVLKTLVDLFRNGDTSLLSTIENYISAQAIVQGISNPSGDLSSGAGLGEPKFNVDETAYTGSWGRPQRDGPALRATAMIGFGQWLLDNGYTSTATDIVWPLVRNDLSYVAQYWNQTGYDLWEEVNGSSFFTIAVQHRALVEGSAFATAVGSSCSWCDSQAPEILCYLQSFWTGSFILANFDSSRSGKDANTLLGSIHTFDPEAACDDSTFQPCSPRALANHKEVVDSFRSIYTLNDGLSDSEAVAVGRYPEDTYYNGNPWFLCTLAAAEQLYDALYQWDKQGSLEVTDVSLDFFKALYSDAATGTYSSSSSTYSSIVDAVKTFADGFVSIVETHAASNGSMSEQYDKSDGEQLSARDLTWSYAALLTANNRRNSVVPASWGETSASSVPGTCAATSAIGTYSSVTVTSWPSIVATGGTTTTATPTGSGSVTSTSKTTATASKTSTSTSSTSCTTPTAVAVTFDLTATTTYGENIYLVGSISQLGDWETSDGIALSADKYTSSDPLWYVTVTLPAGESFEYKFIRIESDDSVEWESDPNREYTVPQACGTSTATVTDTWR
Chain of β-amylase from barley (P16098 whole entry): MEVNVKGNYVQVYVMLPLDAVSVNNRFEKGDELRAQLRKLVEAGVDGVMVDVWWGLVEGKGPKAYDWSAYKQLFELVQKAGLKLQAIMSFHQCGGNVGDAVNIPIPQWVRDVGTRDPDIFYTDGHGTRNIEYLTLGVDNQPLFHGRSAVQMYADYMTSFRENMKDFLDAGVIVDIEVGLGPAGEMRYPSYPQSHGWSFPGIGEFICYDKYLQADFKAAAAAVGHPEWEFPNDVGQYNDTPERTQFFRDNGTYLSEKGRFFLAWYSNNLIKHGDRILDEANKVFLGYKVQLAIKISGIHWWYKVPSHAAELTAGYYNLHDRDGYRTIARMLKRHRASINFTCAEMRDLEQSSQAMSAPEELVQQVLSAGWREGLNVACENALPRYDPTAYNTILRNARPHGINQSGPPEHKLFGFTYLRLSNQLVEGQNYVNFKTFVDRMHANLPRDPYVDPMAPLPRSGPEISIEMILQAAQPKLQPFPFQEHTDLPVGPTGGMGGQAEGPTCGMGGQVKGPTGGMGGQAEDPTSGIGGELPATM

With `[Mn+2]` [Mn^++, manganese ions] the “Relative Activity” value ([1]; 0.01 mM Mn^++) was 101.5%, the “Relative Activity” value ([1]; 0.1 mM Mn^++) was 115.7% and the “Relative Activity” value ([1]; 1 mM Mn^++) was 119.1%. For the same compound, the “Relative Activity” value ([1]; 10 mM Mn^++) was 111.7%, the “effect on hydrolysis of raw corn starch (in words)” value ([1]; summary of Table 4) was “enhances the hydrolysis of raw corn starch” and the “Relative Activity” value ([2]; raw corn starch pre-incubated with 0.01 mM Mn^++) was 89.1%. For the same compound, the “Relative Activity” value ([2]; raw corn starch pre-incubated with 0.1 mM Mn^++) was 84.2%, the “Relative Activity” value ([2]; raw corn starch pre-incubated with 1 mM Mn^++) was 95.0% and the “Relative Activity” value ([2]; raw corn starch pre-incubated with 10 mM Mn^++) was 89.1%. For the same compound, the “cause of Mn^++-induced enhancement (in words)” value ([2]; starch pre-incubated with Mn^++ and washed) was “not caused by the action of Mn^++ on the starch”, the “% conversion of the starch substrate” value ([3]; 1.0 mM Mn^++ pre-incubated with glucoamylase 0 min at 22° C., 5 min, raw corn starch) was 0.42% and the “% conversion of the starch substrate” value ([3]; 1.0 mM Mn^++ pre-incubated with glucoamylase 20 min at 22° C., 5 min, raw corn starch) was 0.35%. For the same compound, the “% conversion of the starch substrate” value ([3]; 1.0 mM Mn^++ pre-incubated with glucoamylase 40 min at 22° C., 5 min, raw corn starch) was 0.38%, the “% conversion of the starch substrate” value ([3]; 1.0 mM Mn^++ pre-incubated with glucoamylase 60 min at 22° C., 5 min, raw corn starch) was 0.38% and the “% conversion of the starch substrate” value ([3]; 1.0 mM Mn^++ pre-incubated with raw corn starch 0 min at 22° C., 5 min) was 0.51%. The “% conversion of the starch substrate” value ([3]; 1.0 mM Mn^++ pre-incubated with raw corn starch 0 min at 22° C., 10 min) was 0.73%, the “% conversion of the starch substrate” value ([3]; 1.0 mM Mn^++ pre-incubated with raw corn starch 20 min at 22° C., 5 min) was 0.48% and the “% conversion of the starch substrate” value ([3]; 1.0 mM Mn^++ pre-incubated with raw corn starch 20 min at 22° C., 10 min) was 0.79%. For the same compound, the “% conversion of the starch substrate” value ([3]; 1.0 mM Mn^++ pre-incubated with raw corn starch 40 min at 22° C., 5 min) was 0.50%, the “% conversion of the starch substrate” value ([3]; 1.0 mM Mn^++ pre-incubated with raw corn starch 40 min at 22° C., 10 min) was 0.81% and the “% conversion of the starch substrate” value ([3]; 1.0 mM Mn^++ pre-incubated with raw corn starch 60 min at 22° C., 5 min) was 0.58%. The “% conversion of the starch substrate” value ([3]; 1.0 mM Mn^++ pre-incubated with raw corn starch 60 min at 22° C., 10 min) was 0.80%, the “effect of pre-incubation on activation by Mn^++ (in words)” value ([3]; pre-incubation of Mn^++ with enzyme or with starch, 0-60 min) was “does not significantly influence the activation effect” and the “Relative Activity” value (β-amylase from barley; [7]) was 115.2%. For the same compound, the “Relative Activity” value (β-amylase from barley; [8]) was 108.1%, the “Relative Activity” value (β-amylase from barley; [9]) was 109.5% and the “Relative Activity” value (β-amylase from barley; [10]) was 107.8%. The “Relative Activity” value (β-amylase from barley; [11]) was 117.4%, the “Relative Activity” value (β-amylase from barley; [12]) was 111.3% and the “Relative Activity” value (β-amylase from barley; [13]) was 120.2%. For the same compound, the “Relative Activity” value (β-amylase from barley; [14]) was 121.1%, the “Relative Activity” value (β-amylase from barley; [15]) was 122.3% and the “Relative Activity” value (β-amylase from barley; [16]) was 117.5%. The “Relative Activity” value (β-amylase from barley; [17]) was 123.9%, the “Relative Activity” value (β-amylase from barley; [18]) was 136.0% and the “Relative Activity” value (β-amylase from barley; [19]) was 122.1%. For the same compound, the “Relative Activity” value (β-amylase from barley; [20]) was 141.9%, the “Relative Activity” value (β-amylase from barley; [21]) was 154.0% and the “Relative Activity” value (β-amylase from barley; [22]) was 139.2%. The “Relative Activity” value (β-amylase from barley; [23]) was 135.4%, the “Relative Activity” value (β-amylase from barley; [24]) was 138.1% and the “Relative Activity” value (β-amylase from barley; [25]) was 154.1%. The “Relative Activity” value (β-amylase from barley; [26]) was 135.6%, the “Relative Activity” value (β-amylase from barley; [27]) was 151.9% and the “Relative Activity” value (β-amylase from barley; [28]) was 197.5%. The “Relative Activity” value (β-amylase from barley; [29]) was 253.4%, the “Relative Activity” value (β-amylase from barley; [30]) was 175.1% and the “Relative Activity” value (β-amylase from barley; [31]) was 173.4%. For the same compound, the “Relative Activity” value (β-amylase from barley; 10 mM Mn^++, cooked soluble potato starch 0.5%) was 165.6%, the “Relative Activity” value (β-amylase from barley; [32]) was 180.5% and the “Relative Activity” value (β-amylase from barley; [33]) was 221.1%. The “Relative Activity” value [4, 7] was 111.1%, the “Relative Activity” value [4, 8] was 121.1% and the “Relative Activity” value [4, 9] was 112.0%. The “Relative Activity” value [4, 10] was 109.3%, the “Relative Activity” value [4, 11] was 104.0% and 115.7% and the “Relative Activity” value [4, 12] was 109.5%. The “Relative Activity” value [4, 13] was 111.9%, the “Relative Activity” value [4, 14] was 117.5% and the “Relative Activity” value [4, 15] was 124.0%. The “Relative Activity” value [4, 16] was 118.8%, the “Relative Activity” value [4, 17] was 129.3% and the “Relative Activity” value [4, 18] was 121.0% and 130.1%. The “Relative Activity” value [4, 19] was 126.0%, the “Relative Activity” value [4, 20] was 122.2% and the “Relative Activity” value [4, 21] was 120.4%. The “Relative Activity” value [4, 22] was 138.0%, the “Relative Activity” value [4, 23] was 138.5% and the “Relative Activity” value [4, 24] was 144.0%. The “Relative Activity” value [4, 25] was 140.0% and 79.9%, the “Relative Activity” value [4, 26] was 135.7% and the “Relative Activity” value [4, 27] was 142.5%. For the same compound, the “Relative Activity” value [4, 28] was 172.6%, the “Relative Activity” value [4, 29] was 179.8% and the “Relative Activity” value [4, 30] was 200.0%. For the same compound, the “Relative Activity” value [4, 31] was 209.2%, the “Relative Activity” value [4, 32] was 183.8% and the “Relative Activity” value [4, 33] was 185.4%. For the same compound, the “Relative Activity” value [5] was 121.0% and 120.4%, the “Relative Activity” value ([6]; 0.01 mM Mn^++) was 113.3% and the “Relative Activity” value ([6]; 0.1 mM Mn^++) was 126.1%. The “Relative Activity” value ([6]; 1 mM Mn^++) was 148.4% and the “Relative Activity” value ([6]; 10 mM Mn^++) was 186.9%.

Reference: patent publication US20080102497A1, “ENZYMATIC HYDROLYSIS OF STARCH” (priority 2006, published 2008)
